Measured values reported in patent US9102620B2, “Deuterated N-ethyl-N-phenyl-1,2-dihydro-4-hydroxy-5-chloro-1-methyl-2-oxoquinoline-3-carboxamide, salts and uses thereof” (TEVA PHARMACEUTICAL INDUSTRIES, LTD., priority 2010, dated 2015).
Several values for one entry are separate records, joined by “and”; a condition that tells them apart may be missing. Equal entries are not always repeated. Where two headings read alike, the source gives them in different places.

Experiments:
[1] = Pharmacokinetic profile in rat plasma following oral administration; format: in vivo
Procedure: The main objectives of this example were: • Quantification of Compound 1, Compound 2, Compound 3 and Laquinimod in rat plasma using LC/MS/MS bioanalytical method. • Characterization of the pharmacokinetic profile of Compound 1, Compound 2, Compound 3 and Laquinimod following oral (PO) administration at a dose of 0.2 mg/kg. • The measurement DELAQ concentrations in the collected plasma samples. Rats cannulated at the right common jugular vein by polyethylene tubing were used. In the in-life part, three cannulated female rats were treated with each of the four test articles at dose of 0.2 mg/kg. Blood was withdrawn from the rats at five different time points for the preparation of plasma. The concentrations of Compound 1, Compound 2, Compound 3, laquinimod, and DELAQ were determined in these plasma samples, using applicable LC/MS/MS methods. Oral administration was performed by oral gavage at a dosage volume of 5 ml/kg using a blunt feeding stainless steel needle (Popper & Sons, USA). Body weights were measured before dose administration and doses were calculated on the basis of individual body weight. Blood were withdrawn from animals at the following time points: 1, 2, 4, 8 and 24 hours after dosing as detailed in the table below. The actual sampling time were recorded. Each animal was restrained firmly. After the removal of the seal the port of the cannula was accessed with an appropriate blunted needle mounted on a syringe containing PBS. After having withdrawn approximately 100 μL of blood, the syringe was changed to a clean heparinized syringe. Approximately 250 μL of blood was collected for the preparation of plasma. The first 100 μL fraction of blood was returned and 250 μL of PBS was given to the animal through the catheter. The catheter was filled by heparinized glycerol (100 IU/ml) solution prepared by mixing 10 ml stock heparin (200 IU/ml) with 10 ml of sterile glycerol (d=1.26 g/mL). Blood specimens were mixed immediately and were placed on water ice. Whole blood was centrifuged at 2500 g for 10 min at 4° C., and the separated plasma was transferred into pre-labeled polypropylene tubes and the tubes were frozen at −70° C. within 70 minutes of collection. The concentrations of test items (Compound 1, Compound 2, Compound 3 and Laquinimod) and the concentration of DELAQ were determined in the plasma samples by using reliable LC/MS/MS assay. Pharmacokinetic parameters were calculated and the mean plasma levels versus time curves were evaluated. The following pharmacokinetic parameters were determined from the mean plasma concentration-time data (mean of three animals at each time point) of Compound 1, Compound 2, Compound 3 and Laquinimod.

MOG induced EAE = MOG induced EAE in C57BL/6 mice; format: in vivo; conditions: daily; for Mortality: Day 0 to Day 30; for % inhibition 1 (according to incidence) / % inhibition 2 (according to MMS) / % inhibition 3 (according to GMS): compared to vehicle; for Incidence: sick mice/group
CYP1A2 = conditions: human, 3 days; for Enzyme activity, Phenacetin O-dealkylation (CYP1A2) / Percent positive control, Phenacetin O-dealkylation (CYP1A2) activity: hepatocytes
Procedure: (§1) After treatment, the cells were incubated in situ with marker substrates for the analysis of phenacetin O-dealkylation (marker for CYP1A2) and midazolam 1′-hydroxylation (marker for CYP3A4/5) by LC/MS/MS.
(§2) Incubations of hepatocytes with probe substrates were conducted in accordance with SOP L5041.02. Approximately 24 hours after the last treatment, spent media was aspirated from the wells, and each well was rinsed two times with pre-warmed (37±2° C.) fresh culture media. Media was aspirated from the wells and reactions were started by addition of 200 μL pre-warmed media containing the probe substrate to each well. […] At 30 minutes, an aliquot (150 μL) of the incubation mixture was removed and added to a well of a 96-well plate containing 300 μL of stop reagent (acetonitrile) and internal standard (Table 2). The mixtures were mixed thoroughly and allowed to sit for at least 15 minutes at 2-8° C. Samples were centrifuged at 2000×g for 10 minutes at 2-8° C., and supernatant fractions were analyzed by LC/MS/MS.
(§3) All analyses were performed with validated LC/MS/MS methods. The procedures used for the analysis of each metabolite followed the applicable LC/MS/MS analytical method SOPs and are summarized in Table 2. The MS equipment was either an ABI Sciex (Applied Biosystems/MDS SCIEX) API 4000 or API 3000 instrument with Shimadzu HPLC pumps and autosampler systems.
(§4) Individual rates of reaction from like treatment groups were averaged, and for those groups with n≧3, standard deviations were determined. Fold increases were determined by dividing the enzymatic rate for each treatment group by that of the vehicle control. Percent positive control was calculated with the following equation: […]

CYP3A4/5 = conditions: human, 3 days; for Enzyme activity, Midazolam 1′-hydroxylation (CYP3A4/5) / Percent positive control, Midazolam 1′-hydroxylation (CYP3A4/5) activity: hepatocytes
Procedure: as §1, §2, §3, §4

[2] = female, rat, po, 0.2 mg/kg, Average of rats
[3] = female, rat, po, 0.2 mg/kg, Average of rats, read-out: Cmax
[4] = female, rat, po, 0.2 mg/kg, Average of rats, read-out: Tmax
[5] = female, rat, po, 0.2 mg/kg, individual rats
[6] = female, rat, po, 0.2 mg/kg, individual rats, read-out: Cmax
[7] = female, rat, po, 0.2 mg/kg, individual rats, read-out: Tmax
[8] = individual rats, oral 0.2 mg/kg

## [2H]C([2H])([2H])C([2H])([2H])N(C(=O)c1c(O)c2c(Cl)cccc2n(C)c1=O)c1ccccc1 [Compound 2, N-D5-ethyl-N-phenyl-1,2-dihydro-4-hydroxy-5-chloro-1-methyl-2-oxoquinoline-3-carboxamide]
[1]; [2]
  AUC(0-inf): 12300 ng·h/mL
  AUC(0-t): 10300 ng·h/mL
  half-life: 13.8 h
[1]; [3]
  Cmax: 725 ng/mL
[1]; [4]
  Tmax: 1.8 h
[1]; [5]
  AUC(0-inf): 10000 ng·h/mL
  AUC(0-t): 10000 ng·h/mL
  half-life: 13.6 h
[1]; [6]
  Cmax: 704 ng/mL
[1]; [7]
  Tmax: 2 h
[1]; [8]
  AUCinf: 14699.6 ng·h/mL and 12439.0 ng·h/mL and 11975.3 ng·h/mL
  AUClast: 10422.1 ng·h/mL and 8741.6 ng·h/mL and 11975.3 ng·h/mL
  Cmax: 827.6 ng/mL and 551.4 ng/mL and 816.2 ng/mL
  T1/2: 13.4 h and 14.6 h
  Tmax: 1.0 h
MOG induced EAE; 10 mg/kg orally
  GMS value (group mean score): 0.79 ± 0.2
  MMS value (mean maximal score): 2.1 ± 1.3
  Mean Duration: 13.2 ± 7.7 days
  Mean Onset: 15.3 ± 6.8 days
  activity in inhibition of EAE clinical signs compared to laquinimod: no significant difference in activity
  Mortality: 0/15
  % inhibition 1 (according to incidence): 7.1%
  % inhibition 2 (according to MMS): 34.4%
  % inhibition 3 (according to GMS): 64.3%
  Incidence: 13/15
CYP1A2; 0.01 μM
  Fold Increase, Phenacetin O-dealkylation (CYP1A2) activity: 7.39 fold
  Enzyme activity, Phenacetin O-dealkylation (CYP1A2): 22.1 ± 2.7 pmol/mg protein/min
  Percent positive control, Phenacetin O-dealkylation (CYP1A2) activity: 23.3%
CYP1A2; 0.05 μM
  Fold Increase, Phenacetin O-dealkylation (CYP1A2) activity: 10.54 fold
  Enzyme activity, Phenacetin O-dealkylation (CYP1A2): 31.6 ± 2.6 pmol/mg protein/min
  Percent positive control, Phenacetin O-dealkylation (CYP1A2) activity: 34.9%
CYP1A2; 0.1 μM
  Fold Increase, Phenacetin O-dealkylation (CYP1A2) activity: 16.12 fold
  Enzyme activity, Phenacetin O-dealkylation (CYP1A2): 48.2 ± 2.4 pmol/mg protein/min
  Percent positive control, Phenacetin O-dealkylation (CYP1A2) activity: 55.2%
CYP1A2; 1 μM
  Fold Increase, Phenacetin O-dealkylation (CYP1A2) activity: 30.36 fold
  Enzyme activity, Phenacetin O-dealkylation (CYP1A2): 90.8 ± 11.5 pmol/mg protein/min
  Percent positive control, Phenacetin O-dealkylation (CYP1A2) activity: 107%
CYP1A2; 10 μM
  Fold Increase, Phenacetin O-dealkylation (CYP1A2) activity: 60.21 fold
  Enzyme activity, Phenacetin O-dealkylation (CYP1A2): 180 ± 8 pmol/mg protein/min
  Percent positive control, Phenacetin O-dealkylation (CYP1A2) activity: 216%
CYP3A4/5; 0.01 μM
  Fold Increase, Midazolam 1′-hydroxylation (CYP3A4/5) activity: 0.91 fold
  Enzyme activity, Midazolam 1′-hydroxylation (CYP3A4/5): 0.179 ± 0.006 pmol/mg protein/min
  Percent positive control, Midazolam 1′-hydroxylation (CYP3A4/5) activity: −2.24%
CYP3A4/5; 0.05 μM
  Fold Increase, Midazolam 1′-hydroxylation (CYP3A4/5) activity: 0.77 fold
  Enzyme activity, Midazolam 1′-hydroxylation (CYP3A4/5): 0.151 ± 0.009 pmol/mg protein/min
  Percent positive control, Midazolam 1′-hydroxylation (CYP3A4/5) activity: −5.94%
CYP3A4/5; 0.1 μM
  Fold Increase, Midazolam 1′-hydroxylation (CYP3A4/5) activity: 0.72 fold
  Enzyme activity, Midazolam 1′-hydroxylation (CYP3A4/5): 0.140 ± 0.010 pmol/mg protein/min
  Percent positive control, Midazolam 1′-hydroxylation (CYP3A4/5) activity: −7.46%
CYP3A4/5; 1 μM
  Fold Increase, Midazolam 1′-hydroxylation (CYP3A4/5) activity: 0.56 fold
  Enzyme activity, Midazolam 1′-hydroxylation (CYP3A4/5): 0.109 ± 0.010 pmol/mg protein/min
  Percent positive control, Midazolam 1′-hydroxylation (CYP3A4/5) activity: −11.5%
CYP3A4/5; 10 μM
  Fold Increase, Midazolam 1′-hydroxylation (CYP3A4/5) activity: 0.51 fold
  Enzyme activity, Midazolam 1′-hydroxylation (CYP3A4/5): 0.101 ± 0.003 pmol/mg protein/min
  Percent positive control, Midazolam 1′-hydroxylation (CYP3A4/5) activity: −12.7%

## CCN(C(=O)c1c(O)c2c(Cl)cccc2n(C)c1=O)c1ccccc1 [Laquinimod, N-ethyl-N-phenyl-1,2-dihydro-4-hydroxy-5-chloro-1-methyl-2-oxoquinoline-3-carboxamide]
[1]; [2]
  AUC(0-inf): 15500 ng·h/mL
  AUC(0-t): 11700 ng·h/mL
  half-life: 11.8 h
[1]; [3]
  Cmax: 794 ng/mL
[1]; [4]
  Tmax: 1.7 h
[1]; [5]
  AUC(0-inf): 14700 ng·h/mL
  AUC(0-t): 11000 ng·h/mL
  half-life: 12 h
[1]; [6]
  Cmax: 770 ng/mL
[1]; [7]
  Tmax: 2 h
[1]; [8]
  AUCinf: 17141.8 ng·h/mL and 14684.6 ng·h/mL
  AUClast: 12659.7 ng·h/mL and 11487.3 ng·h/mL
  Cmax: 774.8 ng/mL and 838.8 ng/mL
  T1/2: 12.4 h and 10.9 h
  Tmax: 1.0 h
MOG induced EAE; 10 mg/kg orally
  GMS value (group mean score): 1.14 ± 0.5
  MMS value (mean maximal score): 2.1 ± 1.9
  Mean Duration: 9.3 ± 8.3 days
  Mean Onset: 21.6 ± 8.4 days
  Mortality: 0/15
  % inhibition 1 (according to incidence): 35.7%
  % inhibition 2 (according to MMS): 34.4%
  % inhibition 3 (according to GMS): 48.4%
  Incidence: 9/15
MOG induced EAE; 10 mg/kg orally, listed as laquinimod
  % inhibition 3 (according to GMS): 48.4%
MOG induced EAE; 25 mg/kg orally
  GMS value (group mean score): 0.5±0.1 and 0.5 ± 0.13
  MMS value (mean maximal score): 1.3±1.8
  Mean Duration: 3.0 ± 5.8 days
  Mean Onset: 28.0 ± 5.8 days
  Mortality: 0/15
  % inhibition 1 (according to incidence): 71.4%
  % inhibition 2 (according to MMS): 59.4%
  % inhibition 3 (according to GMS): 97.7%
  Incidence: 4/15
CYP1A2; 0.01 μM
  Fold Increase, Phenacetin O-dealkylation (CYP1A2) activity: 8.43 fold
  Enzyme activity, Phenacetin O-dealkylation (CYP1A2): 25.2 ± 0.8 pmol/mg protein/min
  Percent positive control, Phenacetin O-dealkylation (CYP1A2) activity: 27.1%
CYP1A2; 0.05 μM
  Fold Increase, Phenacetin O-dealkylation (CYP1A2) activity: 18.06 fold
  Enzyme activity, Phenacetin O-dealkylation (CYP1A2): 54.0 ± 4.5 pmol/mg protein/min
  Percent positive control, Phenacetin O-dealkylation (CYP1A2) activity: 62.3%
CYP1A2; 0.1 μM
  Fold Increase, Phenacetin O-dealkylation (CYP1A2) activity: 21.75 fold
  Enzyme activity, Phenacetin O-dealkylation (CYP1A2): 65.1 ± 1.9 pmol/mg protein/min
  Percent positive control, Phenacetin O-dealkylation (CYP1A2) activity: 75.8%
CYP1A2; 1 μM
  Fold Increase, Phenacetin O-dealkylation (CYP1A2) activity: 43.79 fold
  Enzyme activity, Phenacetin O-dealkylation (CYP1A2): 131 ± 12 pmol/mg protein/min
  Percent positive control, Phenacetin O-dealkylation (CYP1A2) activity: 156%
CYP1A2; 10 μM
  Fold Increase, Phenacetin O-dealkylation (CYP1A2) activity: 61.02 fold
  Enzyme activity, Phenacetin O-dealkylation (CYP1A2): 183 ± 7 pmol/mg protein/min
  Percent positive control, Phenacetin O-dealkylation (CYP1A2) activity: 219%
CYP3A4/5; 0.01 μM
  Fold Increase, Midazolam 1′-hydroxylation (CYP3A4/5) activity: 0.92 fold
  Enzyme activity, Midazolam 1′-hydroxylation (CYP3A4/5): 0.180 ± 0.023 pmol/mg protein/min
  Percent positive control, Midazolam 1′-hydroxylation (CYP3A4/5) activity: −2.04%
CYP3A4/5; 0.05 μM
  Fold Increase, Midazolam 1′-hydroxylation (CYP3A4/5) activity: 0.82 fold
  Enzyme activity, Midazolam 1′-hydroxylation (CYP3A4/5): 0.161 ± 0.013 pmol/mg protein/min
  Percent positive control, Midazolam 1′-hydroxylation (CYP3A4/5) activity: −4.63%
CYP3A4/5; 0.1 μM
  Fold Increase, Midazolam 1′-hydroxylation (CYP3A4/5) activity: 0.78 fold
  Enzyme activity, Midazolam 1′-hydroxylation (CYP3A4/5): 0.151 ± 0.002 pmol/mg protein/min
  Percent positive control, Midazolam 1′-hydroxylation (CYP3A4/5) activity: −5.89%
CYP3A4/5; 1 μM
  Fold Increase, Midazolam 1′-hydroxylation (CYP3A4/5) activity: 0.54 fold
  Enzyme activity, Midazolam 1′-hydroxylation (CYP3A4/5): 0.106 ± 0.004 pmol/mg protein/min
  Percent positive control, Midazolam 1′-hydroxylation (CYP3A4/5) activity: −12.0%
CYP3A4/5; 10 μM
  Fold Increase, Midazolam 1′-hydroxylation (CYP3A4/5) activity: 0.49 fold
  Enzyme activity, Midazolam 1′-hydroxylation (CYP3A4/5): 0.0957 ± 0.0067 pmol/mg protein/min
  Percent positive control, Midazolam 1′-hydroxylation (CYP3A4/5) activity: −13.4%
